# Measurements: patent publication US20230099293A1, “OGA INHIBITOR COMPOUNDS” (priority 2019, published 2023)
# Tests used:
# [1] = target: T1, recombinant human Meningioma Expressed Antigen 5 (MGEA5), also referred to as O-GlcNAcase (OGA) (Homo sapiens, UniProt O60502); assay: OGA biochemical assay (inhibition of FM-GlcNAc hydrolysis, fluorescence); conditions: for IC50: Enzymatic hOGA; for Emax: read-out: Enzymatic Emax (%)
# T1 construct: Full length OGA enzyme was purchased at OriGene (cat #TP322411); purchased OriGene TP322411
# T1 sequence (O60502 1-916): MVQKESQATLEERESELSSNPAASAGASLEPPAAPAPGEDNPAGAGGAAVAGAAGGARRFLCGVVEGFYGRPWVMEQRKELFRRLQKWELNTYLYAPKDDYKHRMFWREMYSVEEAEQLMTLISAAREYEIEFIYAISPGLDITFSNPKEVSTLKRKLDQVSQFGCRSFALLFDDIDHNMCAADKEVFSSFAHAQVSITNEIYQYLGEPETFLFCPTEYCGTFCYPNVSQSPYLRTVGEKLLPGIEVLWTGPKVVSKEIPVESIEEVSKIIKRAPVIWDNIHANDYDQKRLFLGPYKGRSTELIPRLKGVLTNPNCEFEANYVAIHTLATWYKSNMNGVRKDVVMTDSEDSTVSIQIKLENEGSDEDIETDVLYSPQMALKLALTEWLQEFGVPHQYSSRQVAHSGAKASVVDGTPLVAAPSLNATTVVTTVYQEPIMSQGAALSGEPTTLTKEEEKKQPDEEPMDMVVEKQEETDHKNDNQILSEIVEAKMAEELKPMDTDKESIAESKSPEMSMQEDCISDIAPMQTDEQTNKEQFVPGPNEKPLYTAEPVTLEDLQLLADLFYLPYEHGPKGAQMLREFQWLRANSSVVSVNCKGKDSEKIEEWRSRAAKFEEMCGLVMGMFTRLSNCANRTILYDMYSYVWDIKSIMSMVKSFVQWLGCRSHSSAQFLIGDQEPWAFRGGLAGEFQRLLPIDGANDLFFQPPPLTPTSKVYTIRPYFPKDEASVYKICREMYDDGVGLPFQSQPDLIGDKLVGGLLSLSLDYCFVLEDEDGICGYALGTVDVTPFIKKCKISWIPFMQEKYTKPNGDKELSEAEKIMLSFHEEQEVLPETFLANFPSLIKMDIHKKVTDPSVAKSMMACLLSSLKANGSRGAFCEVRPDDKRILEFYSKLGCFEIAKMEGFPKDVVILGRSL
# Protocol: The hydrolysis FM-GlcNAc (Marker Gene technologies, cat #M1485) results in the formation of β-D-N-glucosamineacetate and fluorescein. The fluorescence of the latter can be measured at excitation wavelength 485 nm and emission wavelength 538 nm. An increase in enzyme activity results in an increase in fluorescence signal. Full length OGA enzyme was purchased at OriGene (cat #TP322411). The enzyme was stored in 25 mM Tris.HCl, pH 7.3, 100 mM glycine, 10% glycerol at −20° C. […] The assay was performed in 200 mM Citrate/phosphate buffer supplemented with 0.005% Tween-20. 35.6 g Na2HIPO42H2O (Sigma, #C0759) were dissolved in 1 L water to obtain a 200 mM solution. […] The buffer to stop the reaction consists of a 500 mM Carbonate buffer, pH 11.0. […] OGA was used at a 2 nM concentration and FM-GlcNAc at a 100 uM final concentration. Dilutions were prepared in assay buffer.
# Plates were pre-incubated for 60 min at room temperature and then 2 μl FM-GlcNAc substrate mix added. […] Plates were briefly centrifuged for 1 min at 1000 rpm and incubate at room temperature for 6 h. To stop the reaction 5 μl STOP buffer were added and plates centrifuge again 1 min at 1000 rpm. Fluorescence was quantified in the Thermo Scientific Fluoroskan Ascent or the PerkinElmer EnVision with excitation wavelength 485 nm and emission wavelength 538 nm.
# For analysis a best-fit curve is fitted by a minimum sum of squares method. From this an IC50 value and Hill coefficient was obtained. High control (no inhibitor) and low control (saturating concentrations of standard inhibitor) were used to define the minimum and maximum values.
# hOGA = target: T2, hOGA (Homo sapiens, UniProt O60502); assay: OGA cellular assay (ICC detection of O-GlcNAcylated proteins in HEK293 cells inducible for P301L mutant human Tau); type: cell-based; design: Emax: dose or concentration left out as unconfirmed; conditions: for EC50: Cellular hOGA; for Emax: HEK293, read-out: Cellular Emax (%)
# T2 construct: endogenous in cells; host or cells: HEK293 cells inducible for P301L mutant human Tau (isoform 2N4R)
# T2 sequence (O60502 1-916): T1 sequence (O60502 1-916)
# Protocol: HEK293 cells inducible for P301L mutant human Tau (isoform 2N4R) were established at Janssen. Thiamet-G was used for both plate validation (high control) and as reference compound (reference EC50 assay validation). OGA inhibition is evaluated through the immunocytochemical (ICC) detection of O-GlcNAcylated proteins by the use of a monoclonal antibody (CTD110.6; Cell Signaling, #9875) detecting O-GlcNAcylated residues as previously described (Dorfmueller et al. 2010 Chemistry & biology, 17:1250). Inhibition of OGA will result in an increase of O-GlcNAcylated protein levels resulting in an increased signal in the experiment. Cell nuclei are stained with Hoechst to give a cell culture quality control and a rough estimate of immediate compounds toxicity, if any. ICC pictures are imaged with a Perkin Elmer Opera Phenix plate microscope and quantified with the provided software Perkin Elmer Harmony 4.1.
# Cells were propagated in DMEM high Glucose (Sigma, #D5796) following standard procedures. 2 days before the cell assay cells are split, counted and seeded in Poly-D-Lysine (PDL) coated 96-wells (Greiner, #655946) plate at a cell density of 12,000 cells per cm^2 (4,000 cells per well) in 100 μl of Assay Medium (Low Glucose medium is used to reduce basal levels of GlcNAcylation) (Park et al. 2014 The Journal of biological chemistry 289:13519). At the day of compound test medium from assay plates was removed and replenished with 90 μl of fresh Assay Medium. 10 μl of compounds at a 10 fold final concentration were added to the wells. Plates were centrifuged shortly before incubation in the cell incubator for 6 hours. DMSO concentration was set to 0.2%. Medium is discarded by applying vacuum. For staining of cells medium was removed and cells washed once with 100 μl D-PBS (Sigma, #D8537). From next step onwards unless other stated assay volume was always 50 μl and incubation was performed without agitation and at room temperature. Cells were fixed in 50 μl of a 4% paraformaldehyde (PFA, Alpha aesar, #043368) PBS solution for 15 minutes at room temperature. […] Before analysis samples were washed 2 times manually for 5 minutes in ICC base buffer.
# Imaging is performed using Perkin Elmer Phenix Opera using a water 20× objective and recording 9 fields per well. Intensity readout at 488 nm is used as a measure of O-GlcNAcylation level of total proteins in wells. To assess potential toxicity of compounds nuclei were counted using the Hoechst staining. IC50-values are calculated using parametric non-linear regression model fitting. As a maximum inhibition Thiamet Gat a 200 uM concentration is present on each plate. In addition, a concentration response of Thiamet G is calculated on each plate.
# [2] = pIC50, Table 5, full length OGA 2 nM, FM-GlcNAc 100 uM, 6 h at room temperature
# [3] = pEC50, Table 5, HEK293 P301L Tau cells, 6 hours incubation, O-GlcNAcylation readout
# [4] = pIC50, second table, averaged values over several runs, obtained after recalibration of the equipment
# [5] = pEC50, second table, averaged values over several runs, obtained after recalibration of the equipment
# [6] = Table 5, full length OGA 2 nM, FM-GlcNAc 100 uM, 6 h at room temperature
# [7] = second table, averaged values over several runs, obtained after recalibration of the equipment
# [8] = Table 5, HEK293 P301L Tau cells, 6 hours incubation, O-GlcNAcylation readout
SMILES,"IC50 [1, 2] [nM]",Emax [1] [%],EC50 (hOGA; [3]) [nM],Emax (hOGA) [%],melting point [°C],"IC50 [1, 4] [nM]",EC50 (hOGA; [5]) [nM],"Enzymatic hOGA; pIC50 [1, 6]","Enzymatic hOGA; pIC50 [1, 7]",Cellular hOGA; pEC50 (hOGA; [8]),Cellular hOGA; pEC50 (hOGA; [7])
COc1ccc(-n2nc(C)c(Nc3nccc4c3ncn4CC(=O)N(C)C)c2C)cc1 [Compound 44],27.5,99,457,64,199.9,,,,,,
"Cc1cc(C(F)(F)F)cc(C)c1Nc1nccc2c1ncn2-c1cn(C)cn1 [Compound 82, N-(2,6-dimethyl-4-(trifluoromethyl)phenyl)-1-(1-methyl-1H-imidazol-4-yl)-1H-imidazo[4,5-c]pyridin-4-amine]",174,97,,,184.8,170,> 1000,,,,
"Cc1cc(C(F)(F)F)cc(C)c1Nc1nccc2c1cnn2CC(=O)N(C)C [Compound 64, 2-[4-[2,6-Dimethyl-4-(trifluoromethyl)anilino]pyrazolo[4,3-c]pyridin-1-yl]-N,N-dimethyl-acetamide]",42.7,101,234,78,196.5,,,,,,
Cc1cc(C(F)(F)F)cc(C)c1Nc1nccc2c1ncn2CC(=O)N(C)C1CC1 [Compound 52],8.13,102,138,73,199.8,,,,,,
Cc1cc(C(F)(F)F)cc(C)c1Nc1ncc(F)c2c1ncn2CC(=O)N(C)C [Compound 35],178,96,> 1000,25,236.7,,,,,,
Cc1nn(-c2ccccc2)c(C)c1Nc1nccc2c1ncn2CC(=O)N(C)C [Compound 41],28.2,95,> 1000,44,126.3,,,,,,
Cc1cc(C(F)(F)F)cc(C)c1Nc1nccc2c1ncn2C1CCCCO1 (centres unmarked) [Compound 73],,100,,42,169.8,,,6.77,6.91,<6,6.42
Cc1cc(C#N)cc(C)c1Nc1nccc2c1ncn2CC(=O)N(C)C [Compound 46],13.5,92,468,69,263.4,,,,,,
"Cc1ccnc(C(C)C)c1Nc1nccc2c1cnn2CC(=O)N(C)C [Compound 65, 2-[4-[(2-Isopropyl-4-methyl-3-pyridyl)amino]pyrazolo[4,3-c]pyridin-1-yl]-N,N-dimethyl-acetamide]",174,97,> 1000,24,211.5,,,,,,
"Cc1ccnc(C(C)C)c1Nc1nccc2c1ncn2CC(C)(F)F [Compound 1, 1-(2,2-Difluoropropyl)-N-(2-isopropyl-4-methylpyridin-3-yl)-1H-imidazo[4,5-c]pyridin-4-amine]",5.13,101,45.7,81,,,,,,,
Cc1cc(C)c(Nc2nccc3c2ncn3CC(=O)N(C)C)c(C)c1 [Compound 19],20,98,537,62,270.2,,,,,,
Cc1cc(C(F)(F)F)cc(C)c1Nc1nccc2c1ncn2C(C)C(=O)N(C)C (centres unmarked) [Compound 72],,92,,2,199.9,,,6.26,,<6,<6
Cc1cc(F)cc(F)c1Nc1nccc2c1ncn2CC(C)(F)F [Compound 3],25.7,101,741,57,174.99,,,,,,
Cc1cc(C(F)(F)F)cc(Cl)c1Nc1nccc2c1ncn2CC(C)(F)F [Compound 2],6.03,99,95.5,87,,,,,,,
Cc1cc(F)cc(F)c1Nc1nccc2c1ncn2CC(=O)N(C)C [Compound 26],191,98,> 1000,8,,,,,,,
Cc1cc(C(F)(F)F)cc(F)c1Nc1nccc2c1ncn2CC(=O)N(C)C1CC1,,,,,219.8,,,,,,
[2H]C([2H])([2H])N(C)C(=O)Cn1cnc2c(Nc3c(C)cc(C(F)(F)F)cc3C)nccc21,,,,,212.2,,,,,,
Cc1cc(C(F)(F)F)cc(C)c1Nc1nccc2c1ncn2-c1ncn(C)c1C [Compound 83],,,,,,1170,> 1000,,,,
CCCCn1ncc2c(Nc3c(Cl)cncc3Cl)nccc21 [Compound 67],513,94,> 1000,6,,,,,,,
CCCCn1cnc2c(Nc3c(Cl)cncc3Cl)nccc21 [Compound 58],525,95,,,,,,,,,
CCCCn1ncc2c(Nc3c(C)cncc3C)nccc21 [Compound 68],7590,61,,,,,,,,,
Cc1cc(C(F)(F)F)cc(F)c1Nc1nccc2c1ncn2CC(=O)N(C)CC(F)(F)F,,,,,238.3,,,,,,
Cc1cc(C(F)(F)F)nc(C)c1Nc1nccc2c1ncn2CC(=O)N1CCC1 [Compound 51],1480,82,> 1000,15,,,,,,,
